Results on one molecule are retold here after US20080003635A1, “High Throughput Collagen Synthesis Assay” (InterMune, Inc., priority 2006, published 2008).

The test system of this assay is Human lung fibroblast cells HFL1. As to the kind of experiment: cells. It counts as cell-based. The procedure:
Human lung fibroblast cells HFL1 were seeded as 5×10^4 cells/well in 48-well plate and cultured for 3-7 days in FK12 medium supplemented with 10% heat inactivated fetal calf serum, 2 mM L-glutamine, streptomycin (100 μg/ml), and penicillin (100 units/ml). […] Medium was removed and cells were fixed to the plate with 0.5% glutaraldehyde, prepared in 1× phosphate-buffered-saline (PBS), for 30 minutes at room temperature. Glutaraldehyde was removed, cells were washed with ddH2O and the first 24 wells, which were used to determine collagen synthesis, were treated with 0.5 M acetic acid for 30 minutes, while the second 24 wells were stained with 0.1% crystal violet for viability for 30 minutes at room temperature. After all of the wells were washed with ddH2O, 250 μl of Sirius Red was added to acetic acid-treated cells for 2 hours. The Sirius Red was then removed, and the wells were washed with ddH2O. Absorbed Sirius Red and crystal violet were eluted with 300 μl of alkaline solution and 0.1 M citric acid (pH: 4.2) prepared in 50% ethanol, respectively.
Absorbances of eluted Sirius Red and crystal violet were determined at 540 and 600 nm. The extent of collagen accumulation was determined by normalizing the levels of induced collagen to cell density.

Where two headings read alike, the source gives them in different places.

`Cc1ccc(=O)n(-c2ccccc2)c1` [P, pirfenidone]: the fold induction at 1000 µM (HFL1, 24 h, read-out: Fold Induction of Collagen, 250 pg/ml TGF-β, 24 hrs., P 1 mM, A 300 pg/mL) is 0.973; the fold induction at 1000 µM (HFL1, 24 h, read-out: Fold Induction of Collagen, 500 pg/ml TGF-β, 24 hrs., P 1 mM, A 300 pg/mL) came out at 0.98; the fold induction at 1000 µM (HFL1, 24 h, read-out: Fold Induction of Collagen, 1000 pg/ml TGF-β, 24 hrs., P 1 mM, A 300 pg/mL) came out at 0.998; the fold induction at 1000 µM (HFL1, 48 h, read-out: Fold Induction of Collagen, 250 pg/ml TGF-β, 48 hrs., P 1 mM, A 300 pg/mL) was determined as 0.997; the fold induction at 1000 µM (HFL1, 48 h, read-out: Fold Induction of Collagen, 500 pg/ml TGF-β, 48 hrs., P 1 mM, A 300 pg/mL) was 0.884; the fold induction at 1000 µM (HFL1, 48 h, read-out: Fold Induction of Collagen, 1000 pg/ml TGF-β, 48 hrs., P 1 mM, A 300 pg/mL) was determined as 0.954. The fold induction at 1000 µM was 0.928 (HFL1, 72 h, read-out: Fold Induction of Collagen, 250 pg/ml TGF-β, 72 hrs., P 1 mM, A 300 pg/mL); 0.931 (HFL1, 72 h, read-out: Fold Induction of Collagen, 500 pg/ml TGF-β, 72 hrs., P 1 mM, A 300 pg/mL); 0.917 (HFL1, 72 h, read-out: Fold Induction of Collagen, 1000 pg/ml TGF-β, 72 hrs., P 1 mM, A 300 pg/mL).
